# Data taken from patent US20260272964A1, “PENTAGALLOYL GLUCOSE DERIVED FROM SCHINUS PLANTS AND METHODS OF USE” (Emory University, priority 2020, published 2026).
# Like-named read-outs stand apart in the source and are kept apart here.
# Test system: A. baumannii AB5075
# Test: Resistance studies (agar plates and 21-day serial passaging)
# Type: cell-based, Acinetobacter baumannii
# Details: for MIC: Acinetobacter baumannii
# Experimental: To test for spontaneous development of resistance to PGG, A. baumannii AB5075 was inoculated on agar plates containing PGG at 0.5×MIC, 1×MIC, and 2×MIC (128, 256, and 512 μg/mL, respectively), and a control plate containing no PGG. […] Next, evolution of resistance was tested by serial passaging A. baumannii AB5075 for 21 days in the presence of a PGG gradient, using culture from the 0.5×MIC treatment for each subsequent passage. Serial passaging with a tetracycline gradient served as a control.
structure (smiles),measurement,setting,value
"CN(C)[C@@H]1C(O)=C(C(N)=O)C(=O)[C@@]2(O)C(O)=C3C(=O)c4c(O)cccc4[C@@](C)(O)[C@H]3C[C@@H]12 [tetracycline, reference compound]",fold increase in MIC,"A. baumannii, after 10 passages",16 fold
same,MIC,"AB5075, read-out: Base MIC",4 µg/mL
same,MIC,"AB5075, read-out: MIC after serial passaging",64 µg/mL
